{"source": "patent US9253983B2", "about": "“Triazole compound and use thereof” (KUREHA CORPORATION, priority 2011, dated 2016)", "key": {"[1]": {"system": "Gibberella fujikuroi", "test": "Test 1 for antifungal effect, plate medium: G.f", "type": "cell-based", "conditions": "PDA plate medium", "protocol": "(§1) Compound (1-1a) or Compound (1-2a) was dissolved in dimethyl sulfoxide, and the resulting solution was added to a PDA medium (potato dextrose-agar medium) at about 60° C. The medium and the solution were mixed thoroughly in a conical flask, poured into a petri dish, and allowed to solidify. In this way, a plate medium containing Compound (1-1a) or Compound (1-2a) at a certain concentration was prepared.\n(§2) Meanwhile, test microorganisms cultured on a plate medium in advance were cut out with the use of a cork borer 4 mm in diameter, and were inoculated onto the compound-containing plate medium. After the inoculation, the microorganisms were cultured at their optimum growth temperatures (for example, refer to LIST OF CULTURES 1996 microorganisms 10th edition, Institute for Fermentation (foundation)) for 1 day to 7 days, and their growth was determined by measuring the diameter of their flora. The extent of growth of the microorganisms on the compound-containing plate medium was compared with that of microorganisms on a plate medium where no compound was added, and mycelial growth inhibition rate was calculated by the following equation: R=100(dc−dt)/dc where R is mycelial growth inhibition rate (%), dc is the flora diameter in untreated plate, and dt is the flora diameter in plate treated with the compound.\n(§3) A larger antifungal index indicates a better antifungal effect."}, "[2]": {"system": "Septoria tritici", "test": "Test 2 for antifungal effect, plate medium: S.t", "type": "cell-based", "conditions": "PDA plate medium", "protocol": "(§4) Compound (1-1b) or Compound (1-2b) was dissolved in dimethyl sulfoxide, and the resulting solution was added to a PDA medium (potato dextrose-agar medium) at about 60° C. The medium and the solution were mixed thoroughly in a conical flask, poured into a petri dish, and allowed to solidify. In this way, a plate medium containing Compound (1-1b) or Compound (1-2b) at a certain concentration was prepared.\n(§5) Meanwhile, test microorganisms cultured on a plate medium in advance were cut out with the use of a cork borer 4 mm in diameter, and were inoculated onto the compound-containing plate medium. After the inoculation, the pathogens were cultured at their optimum growth temperatures (for example, refer to LIST OF CULTURES 1996 microorganisms 10th edition, Institute for Fermentation (foundation)) for 1 day to 7 days, and their growth was determined by measuring the diameter of their flora. The extent of growth of the pathogens on the compound-containing plate medium was compared with that of pathogens on a plate medium where no compound was added, and mycelial growth inhibition rate was calculated as in Experiment Example 10. Note that, in Experiment Example 11, controls used in the antifungal effect tests are Compound (1-1a) and Compound (1-2a) instead of Compound (1-1b) and Compound (1-2b), respectively.\n(§6) The results were rated on a 1-to-5 scale as in Experiment Example 10."}, "[3]": {"system": "Gaeumannomyces graminis", "test": "Test 1 for antifungal effect, plate medium: G.g", "type": "cell-based", "conditions": "PDA plate medium", "protocol": "as §1, §2, §3"}, "[4]": {"system": "Rhizopus oryzae", "test": "Test 1 for antifungal effect, plate medium: R.o", "type": "cell-based", "conditions": "PDA plate medium", "protocol": "as §1, §2, §3"}, "[5]": {"system": "Microdochium nivale", "test": "Test 1 for antifungal effect, plate medium: M.n", "type": "cell-based", "conditions": "PDA plate medium", "protocol": "as §1, §2, §3"}, "[6]": {"system": "Botrytis cinerea", "test": "Controlling effect on cucumber gray mold by foliage spray treatment (Tests 1 and 2)", "type": "in vivo", "conditions": "foliage spray 12.5 mg/L, 1,000 L/ha, four days after inoculation", "protocol": "The cucumber plants had been grown in square plastic pots (6 cm×6 cm). After the suspension was then left to dry, paper discs (8 mm in diameter) impregnated with a spore suspension of Botrytis cinerea w ere placed on the leaves, and the plants were kept at 20° C. in a high humidity environment. Four days after inoculation, the lesion degree of the cucumber gray mold was examined in accordance with the criteria shown in Table 1, and the protective values were calculated by the following equation: Protective value (%)=(1−Average lesion degree in sprayed plot/Average lesion degree in unsprayed plot)×100.\nThe cucumber plants had been grown in square plastic pots (6 cm×6 cm). After the leaves were air-dried, paper discs (8 mm in diameter) impregnated with a spore suspension of cucumber graymold-causing microorganisms were placed on the leaves, and the plants were kept at 20° C. in a high humidity environment. 4 days after the inoculation, the lesion degree of the cucumber gray mold was examined, and the protective values were calculated as were in Experiment Example 1."}, "[7]": {"system": "Phaeosphaeria nodorum", "test": "Test 1 for antifungal effect, plate medium: P.n", "type": "cell-based", "conditions": "PDA plate medium", "protocol": "as §1, §2, §3"}, "[8]": {"system": "Botrytis cinerea", "test": "Test 1 for antifungal effect, plate medium: B.c", "type": "cell-based", "conditions": "PDA plate medium", "protocol": "as §1, §2, §3"}, "[9]": {"system": "Penicillium italicum", "test": "Test 2 for antifungal effect, plate medium: P.i", "type": "cell-based", "conditions": "PDA plate medium", "protocol": "as §4, §5, §6"}, "[10]": {"system": "Puccinia recondita", "test": "Efficacy of seed treatment on wheat brown rust", "type": "in vivo", "conditions": "wheat seed treatment 20 g ai/100 kg seeds, 12 days after inoculation", "protocol": "A pot experiment was performed to evaluate the efficacy of seed treatment in controlling wheat leaf rust. Compound (1-1a) and Compound (1-2a), each of which was dissolved in DMSO to make up such a concentration that the seeds would be treated in treatment amount of 20 g ai/100 kg seeds, were each applied to wheat seeds in a vial, and thereafter 8 wheat seeds were sowed on an 80-cm^2 pot. The pot was kept in a greenhouse with water supplied to its bottom. 21 days after the sowing, the wheat seeds were inoculated with Puccinia recondita, and kept in a wet box for 2 days. After that, the pot was again kept in the greenhouse with water supplied to its bottom. 12 days after the inoculation, the percentage of affected area was found, and the protective value was calculated by the following equation. Protective value (%)=(1−(Percentage of affected area in treated region/Percentage of affected area in untreated region))×100"}}, "data": [{"compound": "CC1(CCl)CCC(Cc2ccc(Cl)cc2)C1(O)Cn1cncn1", "note": "(single isomer, unassigned) [Compound (1-1a), (1,2-cis, 1,5-cis)-5-(4-chlorobenzyl)-2-chloromethyl-2-methyl-1-(1H-1,2,4-triazole-1-ylmethyl)cyclopentanol]", "values": [{"measurement": "Antifungal index (mycelial growth inhibition rate)", "setting": "[1]; 0.16 mg/L", "value": "5 (90% or greater)"}, {"measurement": "Antifungal index (mycelial growth inhibition rate)", "setting": "[1]; 0.31 mg/L", "value": "5 (90% or greater)"}, {"measurement": "Antifungal index (mycelial growth inhibition rate)", "setting": "[1]; 0.63 mg/L", "value": "5 (90% or greater)"}, {"measurement": "Antifungal index (mycelial growth inhibition rate)", "setting": "[1]; 1.25 mg/L", "value": "5 (90% or greater)"}, {"measurement": "Antifungal index (mycelial growth inhibition rate)", "setting": "[1]; 2.50 mg/L", "value": "5 (90% or greater)"}, {"measurement": "Antifungal index (mycelial growth inhibition rate)", "setting": "[2]; 0.04 mg/L", "value": "1 (Less than 60%)"}, {"measurement": "Antifungal index (mycelial growth inhibition rate)", "setting": "[2]; 0.08 mg/L", "value": "1 (Less than 60%)"}, {"measurement": "Antifungal index (mycelial growth inhibition rate)", "setting": "[2]; 0.16 mg/L", "value": "1 (Less than 60%)"}, {"measurement": "Antifungal index (mycelial growth inhibition rate)", "setting": "[2]; 0.31 mg/L", "value": "1 (Less than 60%)"}, {"measurement": "Antifungal index (mycelial growth inhibition rate)", "setting": "[2]; 0.63 mg/L", "value": "1 (Less than 60%)"}, {"measurement": "Antifungal index (mycelial growth inhibition rate)", "setting": "[2]; 1.25 mg/L", "value": "1 (Less than 60%)"}, {"measurement": "Antifungal index (mycelial growth inhibition rate)", "setting": "[3]; 0.16 mg/L", "value": "3 (Less than 80% but not less than 70%)"}, {"measurement": "Antifungal index (mycelial growth inhibition rate)", "setting": "[3]; 0.31 mg/L", "value": "5 (90% or greater)"}, {"measurement": "Antifungal index (mycelial growth inhibition rate)", "setting": "[3]; 0.63 mg/L", "value": "5 (90% or greater)"}, {"measurement": "Antifungal index (mycelial growth inhibition rate)", "setting": "[3]; 1.25 mg/L", "value": "5 (90% or greater)"}, {"measurement": "Antifungal index (mycelial growth inhibition rate)", "setting": "[3]; 2.50 mg/L", "value": "5 (90% or greater)"}, {"measurement": "Antifungal index (mycelial growth inhibition rate)", "setting": "[4]; 0.16 mg/L", "value": "3 (Less than 80% but not less than 70%)"}, {"measurement": "Antifungal index (mycelial growth inhibition rate)", "setting": "[4]; 0.31 mg/L", "value": "4 (Less than 90% but not less than 80%)"}, {"measurement": "Antifungal index (mycelial growth inhibition rate)", "setting": "[4]; 0.63 mg/L", "value": "5 (90% or greater)"}, {"measurement": "Antifungal index (mycelial growth inhibition rate)", "setting": "[4]; 1.25 mg/L", "value": "5 (90% or greater)"}, {"measurement": "Antifungal index (mycelial growth inhibition rate)", "setting": "[4]; 2.50 mg/L", "value": "5 (90% or greater)"}, {"measurement": "Antifungal index (mycelial growth inhibition rate)", "setting": "[5]; 0.16 mg/L", "value": "1 (Less than 60%)"}, {"measurement": "Antifungal index (mycelial growth inhibition rate)", "setting": "[5]; 0.31 mg/L", "value": "3 (Less than 80% but not less than 70%)"}, {"measurement": "Antifungal index (mycelial growth inhibition rate)", "setting": "[5]; 0.63 mg/L", "value": "3 (Less than 80% but not less than 70%)"}, {"measurement": "Antifungal index (mycelial growth inhibition rate)", "setting": "[5]; 1.25 mg/L", "value": "4 (Less than 90% but not less than 80%)"}, {"measurement": "Antifungal index (mycelial growth inhibition rate)", "setting": "[5]; 2.50 mg/L", "value": "5 (90% or greater)"}, {"measurement": "Protective value (%)", "setting": "[6]", "value": 100, "unit": "%"}, {"measurement": "Antifungal index (mycelial growth inhibition rate)", "setting": "[7]; 0.16 mg/L", "value": "2 (Less than 70% but not less than 60%)"}, {"measurement": "Antifungal index (mycelial growth inhibition rate)", "setting": "[7]; 0.31 mg/L", "value": "3 (Less than 80% but not less than 70%)"}, {"measurement": "Antifungal index (mycelial growth inhibition rate)", "setting": "[7]; 0.63 mg/L", "value": "5 (90% or greater)"}, {"measurement": "Antifungal index (mycelial growth inhibition rate)", "setting": "[7]; 1.25 mg/L", "value": "5 (90% or greater)"}, {"measurement": "Antifungal index (mycelial growth inhibition rate)", "setting": "[7]; 2.50 mg/L", "value": "5 (90% or greater)"}, {"measurement": "Antifungal index (mycelial growth inhibition rate)", "setting": "[8]; 0.16 mg/L", "value": "3 (Less than 80% but not less than 70%)"}, {"measurement": "Antifungal index (mycelial growth inhibition rate)", "setting": "[8]; 0.31 mg/L", "value": "5 (90% or greater)"}, {"measurement": "Antifungal index (mycelial growth inhibition rate)", "setting": "[8]; 0.63 mg/L", "value": "5 (90% or greater)"}, {"measurement": "Antifungal index (mycelial growth inhibition rate)", "setting": "[8]; 1.25 mg/L", "value": "5 (90% or greater)"}, {"measurement": "Antifungal index (mycelial growth inhibition rate)", "setting": "[8]; 2.50 mg/L", "value": "5 (90% or greater)"}, {"measurement": "Antifungal index (mycelial growth inhibition rate)", "setting": "[9]; 0.04 mg/L", "value": "1 (Less than 60%)"}, {"measurement": "Antifungal index (mycelial growth inhibition rate)", "setting": "[9]; 0.08 mg/L", "value": "4 (Less than 90% but not less than 80%)"}, {"measurement": "Antifungal index (mycelial growth inhibition rate)", "setting": "[9]; 0.16 mg/L", "value": "4 (Less than 90% but not less than 80%)"}, {"measurement": "Antifungal index (mycelial growth inhibition rate)", "setting": "[9]; 0.31 mg/L", "value": "5 (90% or greater)"}, {"measurement": "Antifungal index (mycelial growth inhibition rate)", "setting": "[9]; 0.63 mg/L", "value": "5 (90% or greater)"}, {"measurement": "Antifungal index (mycelial growth inhibition rate)", "setting": "[9]; 1.25 mg/L", "value": "5 (90% or greater)"}, {"measurement": "Protective value (%)", "setting": "[10]", "value": 90, "unit": "%"}]}]}
